Data as given in the supplement of paper PMC10307832.

Compound: COC1=C(C=C(C=C1)C2=CC3=NC=CN3C(=N2)NC4=C(C=CC=N4)C(=O)N)OC [BAY61-3606] + CS(=O)(=O)N1CCN(Cc2cc3nc(-c4cccc5[nH]ncc45)nc(N4CCOCC4)c3s2)CC1 [Pictilisib] (partner 1 µM)
Assay: relative viability (nuclei count vs DMSO), 5 days (fraction); higher = more cells survive
Conditions: first compound 2 µM
Outline: (§1)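 After 5 days of treatment, lung cancer cells in 1536-well plates were fixed and stained in a single step (final 0.05% Triton X-100, 1% formaldehyde, 1 ug/ml Hoechst) and their nuclei counted on 4× images. Treatment had been applied by pin tool the day after seeding as one drug alone or as a fixed anchor-drug dose with five library-drug doses (not always all listed) in √10 steps. Relative viability is the nuclei count of treated wells divided by that of vehicle wells, and values are medians of duplicate plates.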

Going from PC-14 to HCC-366, the relative viability falls from 0.589 to 0.116.

Compound: COc1cccc2c1C(=O)c1c(O)c3c(c(O)c1C2=O)C[C@@](O)(C(=O)CO)C[C@@H]3O[C@H]1C[C@H](N)[C@H](O)[C@H](C)O1 [Doxorubicin] + CS(=O)(=O)CCNCc1ccc(-c2ccc3ncnc(Nc4ccc(OCc5cccc(F)c5)c(Cl)c4)c3c2)o1 [Lapatinib] (partner 2 µM)
Assay: as above
Conditions: first compound 0.001 µM
Outline: as §1

Going from NCI-H650 to NCI-H3122, the relative viability rises from 0.925 to 1.02.

Compared with NCI-H1395, 201T is higher in relative viability: 0.921 for the first, 0.942 for the second.

Going from NCI-H1975 to HOP-62, the relative viability falls from 0.887 to 0.811.

Going from NCI-H1299 to NCI-H1355, the relative viability falls from 0.988 to 0.952.

Going from NCI-H838 to CAL-12T, the relative viability falls from 1.02 to 0.597.

Going from NCI-H1666 to EPLC-272H, the relative viability rises from 0.699 to 0.918.

First: NCI-H2347
Second: NCI-H1915
The relative viability of the first is higher: 0.988 for the first, 0.975 for the second.

Compared with NCI-H1437, NCI-H460 is higher in relative viability: 0.772 for the first, 0.86 for the second.

Going from NCI-H1563 to NCI-H1792, the relative viability rises from 0.721 to 0.942.

Going from NCI-H2085 to HCC-15, the relative viability falls from 0.745 to 0.661.

First: NCI-H1944
Second: EKVX
The relative viability of the first is higher: 0.872 for the first, 0.233 for the second.

Compared with NCI-H1650, NCI-H2170 is higher in relative viability: 0.208 for the first, 0.263 for the second.

Compared with NCI-H1993, ABC-1 is higher in relative viability: 0.823 for the first, 1.14 for the second.

Going from SK-MES-1 to PC-14, the relative viability falls from 0.423 to 0.353.

Same assay, conditions: first compound 0.003162 µM

Compared with NCI-H650, NCI-H3122 is higher in relative viability: 0.838 for the first, 1 for the second.

Going from NCI-H1395 to 201T, the relative viability falls from 0.986 to 0.968.

Going from NCI-H1975 to HOP-62, the relative viability rises from 0.902 to 1.15.

First: NCI-H1299
Second: NCI-H2405
The relative viability of the first is lower: 0.973 for the first, 1.07 for the second.

First: NCI-H1355
Second: NCI-H838
The relative viability of the first is higher: 1.08 for the first, 1.06 for the second.

Going from CAL-12T to NCI-H1666, the relative viability falls from 0.656 to 0.507.

Compared with EPLC-272H, NCI-H2347 is higher in relative viability: 0.906 for the first, 1.17 for the second.

Going from NCI-H1915 to NCI-H1437, the relative viability falls from 0.929 to 0.836.

Going from NCI-H460 to NCI-H1563, the relative viability rises from 0.592 to 0.779.

First: NCI-H1792
Second: NCI-H2085
The relative viability of the first is higher: 0.911 for the first, 0.85 for the second.

Compared with HCC-15, NCI-H1944 is lower in relative viability: 0.91 for the first, 0.827 for the second.

Compared with EKVX, NCI-H1650 is higher in relative viability: 0.234 for the first, 0.612 for the second.

Compared with NCI-H2170, NCI-H1993 is higher in relative viability: 0.264 for the first, 0.778 for the second.

Going from NCI-H23 to ABC-1, the relative viability rises from 1.1 to 1.54.

First: SK-MES-1
Second: PC-14
The relative viability of the first is higher: 0.444 for the first, 0.351 for the second.

Work on HCC-366 yielded a relative viability of 1.09.

Same assay, conditions: first compound 0.01 µM

Going from NCI-H650 to NCI-H3122, the relative viability rises from 0.837 to 1.02.

Going from NCI-H1395 to 201T, the relative viability rises from 0.949 to 1.04.

Going from NCI-H1975 to HOP-62, the relative viability rises from 0.719 to 1.02.

First: NCI-H1299
Second: NCI-H2405
The relative viability of the first is lower: 0.955 for the first, 1.05 for the second.

Compared with NCI-H1355, NCI-H838 is lower in relative viability: 0.963 for the first, 0.834 for the second.

First: CAL-12T
Second: NCI-H1666
The relative viability of the first is higher: 0.517 for the first, 0.296 for the second.

Going from EPLC-272H to NCI-H2347, the relative viability rises from 0.919 to 0.975.

Compared with NCI-H1915, NCI-H1437 is lower in relative viability: 0.99 for the first, 0.61 for the second.

Compared with NCI-H460, NCI-H1563 is higher in relative viability: 0.247 for the first, 0.661 for the second.

First: NCI-H1792
Second: NCI-H2085
The relative viability of the first is higher: 0.874 for the first, 0.763 for the second.

Going from HCC-15 to NCI-H1944, the relative viability rises from 0.657 to 0.857.

First: EKVX
Second: NCI-H1650
The relative viability of the first is lower: 0.228 for the first, 0.25 for the second.

First: NCI-H2170
Second: NCI-H1993
The relative viability of the first is lower: 0.259 for the first, 0.748 for the second.

Going from NCI-H23 to ABC-1, the relative viability rises from 0.852 to 0.975.

Going from SK-MES-1 to PC-14, the relative viability falls from 0.489 to 0.293.

Cell Line HCC-366 has a relative viability of 1.

Same assay, conditions: first compound 0.03162 µM

First: NCI-H650
Second: NCI-H3122
The relative viability of the first is lower: 0.595 for the first, 1 for the second.

Compared with NCI-H1395, 201T is higher in relative viability: 0.803 for the first, 1.01 for the second.

First: NCI-H1975
Second: HOP-62
The relative viability of the first is lower: 0.253 for the first, 1.1 for the second.

Going from NCI-H1299 to NCI-H2405, the relative viability falls from 0.889 to 0.639.

Compared with NCI-H1355, NCI-H838 is lower in relative viability: 0.888 for the first, 0.375 for the second.

Compared with CAL-12T, NCI-H1666 is lower in relative viability: 0.67 for the first, 0.25 for the second.

Going from EPLC-272H to NCI-H2347, the relative viability falls from 0.944 to 0.756.

Compared with NCI-H1915, NCI-H1437 is lower in relative viability: 0.975 for the first, 0.278 for the second.

Compared with NCI-H460, NCI-H1563 is higher in relative viability: 0.0187 for the first, 0.545 for the second.

Going from NCI-H1792 to NCI-H2085, the relative viability falls from 0.865 to 0.652.

Compared with HCC-15, NCI-H1944 is higher in relative viability: 0.563 for the first, 0.693 for the second.

Compared with EKVX, NCI-H1650 is higher in relative viability: 0.188 for the first, 0.202 for the second.

Compared with NCI-H2170, NCI-H1993 is higher in relative viability: 0.266 for the first, 0.633 for the second.

Going from NCI-H23 to ABC-1, the relative viability rises from 0.481 to 1.07.

Going from SK-MES-1 to PC-14, the relative viability falls from 0.396 to 0.286.

For HCC-366, the relative viability was 0.168.

Same assay, conditions: first compound 0.1 µM

Compared with NCI-H650, NCI-H3122 is higher in relative viability: 0.0014 for the first, 0.958 for the second.

Compared with NCI-H1395, 201T is higher in relative viability: 0.607 for the first, 1.03 for the second.

Compared with NCI-H1975, HOP-62 is higher in relative viability: 0.202 for the first, 0.853 for the second.

Going from NCI-H1299 to NCI-H2405, the relative viability falls from 0.514 to 0.301.

Going from NCI-H1355 to NCI-H838, the relative viability falls from 0.856 to 0.195.

Going from CAL-12T to NCI-H1666, the relative viability falls from 0.404 to 0.236.

First: EPLC-272H
Second: NCI-H2347
The relative viability of the first is higher: 0.989 for the first, 0.781 for the second.

First: NCI-H1915
Second: NCI-H1437
The relative viability of the first is higher: 0.99 for the first, 0.209 for the second.

Compared with NCI-H460, NCI-H1563 is higher in relative viability: 0.0161 for the first, 0.549 for the second.

First: NCI-H1792
Second: NCI-H2085
The relative viability of the first is higher: 0.89 for the first, 0.608 for the second.

Compared with HCC-15, NCI-H1944 is higher in relative viability: 0.552 for the first, 0.841 for the second.

Going from EKVX to NCI-H1650, the relative viability falls from 0.182 to 0.14.

Compared with NCI-H2170, NCI-H1993 is higher in relative viability: 0.285 for the first, 0.501 for the second.

Going from NCI-H23 to ABC-1, the relative viability rises from 0.43 to 1.1.

Compared with SK-MES-1, PC-14 is lower in relative viability: 0.409 for the first, 0.302 for the second.

Work on HCC-366 yielded a relative viability of 0.145.
